Measurements as given in patent US10369130B2, “Antibacterial compounds” (AZIENDE CHIMICHE RIUNITE ANGELINI FRANCESCO A.C.R.A.F. …, priority 2014, dated 2019).
Where a name gives a salt, the structure may show the parent alone.

How the values were obtained:
Type in all cases: biochemical
Settings in all cases: single concentration (200, 100 or 50 μM), in duplicate, versus the positive control (vehicle)
[1] = target: T1, DNA gyrase (Staphylococcus aureus, UniProt P0A0K8+P20831); experiment: DNA gyrase supercoiling assay (S. aureus)
T1 construct: purchased Inspiralis, UK
T1 sequence (P20831 whole entry): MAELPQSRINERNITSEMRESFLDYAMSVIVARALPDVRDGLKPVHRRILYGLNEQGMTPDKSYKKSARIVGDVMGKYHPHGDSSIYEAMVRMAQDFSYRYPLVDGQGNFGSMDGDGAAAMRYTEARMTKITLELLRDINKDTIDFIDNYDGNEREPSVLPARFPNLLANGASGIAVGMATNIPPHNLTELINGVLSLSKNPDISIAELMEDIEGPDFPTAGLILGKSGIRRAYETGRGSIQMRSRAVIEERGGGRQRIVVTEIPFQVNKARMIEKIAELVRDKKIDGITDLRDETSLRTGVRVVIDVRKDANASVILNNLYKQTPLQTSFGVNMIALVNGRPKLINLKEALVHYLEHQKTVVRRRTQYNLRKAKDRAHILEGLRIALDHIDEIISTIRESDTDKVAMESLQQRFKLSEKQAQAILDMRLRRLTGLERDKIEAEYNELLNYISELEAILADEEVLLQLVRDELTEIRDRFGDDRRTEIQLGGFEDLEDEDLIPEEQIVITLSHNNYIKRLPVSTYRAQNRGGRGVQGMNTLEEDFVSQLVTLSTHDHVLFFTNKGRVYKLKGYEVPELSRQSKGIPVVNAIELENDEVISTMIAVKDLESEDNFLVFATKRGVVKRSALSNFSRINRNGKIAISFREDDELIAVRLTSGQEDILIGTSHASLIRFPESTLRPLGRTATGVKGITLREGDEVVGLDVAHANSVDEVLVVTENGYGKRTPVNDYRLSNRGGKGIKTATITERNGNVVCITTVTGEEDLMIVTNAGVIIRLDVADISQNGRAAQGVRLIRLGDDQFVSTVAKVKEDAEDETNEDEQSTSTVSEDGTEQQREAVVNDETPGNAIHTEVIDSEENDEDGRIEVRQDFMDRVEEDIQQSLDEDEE
T1 sequence (P0A0K8 whole entry): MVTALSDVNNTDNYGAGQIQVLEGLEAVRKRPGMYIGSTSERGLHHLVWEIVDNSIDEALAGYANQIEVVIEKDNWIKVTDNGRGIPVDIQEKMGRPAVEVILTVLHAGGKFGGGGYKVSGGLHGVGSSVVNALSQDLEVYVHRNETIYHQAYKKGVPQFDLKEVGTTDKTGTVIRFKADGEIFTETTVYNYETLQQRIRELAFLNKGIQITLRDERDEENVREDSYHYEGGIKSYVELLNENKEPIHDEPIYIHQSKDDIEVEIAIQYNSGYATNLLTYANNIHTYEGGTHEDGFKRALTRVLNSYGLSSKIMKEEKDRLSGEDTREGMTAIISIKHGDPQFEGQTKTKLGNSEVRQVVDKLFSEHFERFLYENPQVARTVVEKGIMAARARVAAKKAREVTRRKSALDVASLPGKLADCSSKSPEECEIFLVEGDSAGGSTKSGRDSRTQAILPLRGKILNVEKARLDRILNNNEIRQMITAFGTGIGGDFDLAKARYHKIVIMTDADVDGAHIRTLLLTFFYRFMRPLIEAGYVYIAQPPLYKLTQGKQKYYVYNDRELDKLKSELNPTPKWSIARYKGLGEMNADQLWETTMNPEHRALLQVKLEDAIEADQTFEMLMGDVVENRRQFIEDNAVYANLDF
Method: (§1) The above compounds were tested for the inhibition of the enzyme DNA gyrase in a gyrase supercoiling assay and for the inhibition of the enzyme topoisomerase IV in a decatenation assay, in both Gram positive and Gram negative bacteria, according to the following methods.
(§2) Both the assays were carried out according to a set-up method modified from the article to Blanche F, et al. “Differential Behaviors of Staphylococcus aureus and Escherichia coli Type II DNA Topoisomerases”, Antimicrob.
(§3) The compounds were screened at single concentration (200, 100 or 50 μM), in duplicate.
(§4) Ciprofloxacin and novobiocin were used as reference compounds, at single concentration of 200 and 50 μM, respectively.
(§5) DNA Gyrase Supercoiling Assay.
(§6) Reagents from S. aureus and E. coli Gyrase Supercoiling Assay kits (Inspiralis, UK) were used. A master mix with a total volume sufficient for the number of reactions to perform was prepared with the following reagents: 5× assay buffer, relaxed pBR322 substrate (0.5 μg/reaction), RNase-DNase free water. Aliquotes of this mix were dispensed in each tube, then 10× compound stock solutions or vehicle control (DMSO), were added to each reaction tube.
(§7) Reaction was started with E. Coli (2 U/reaction) or S. aureus (1 U/reaction) gyrase enzyme addition.
(§8) A sample added with an equal volume of dilution buffer was used as negative control (without enzyme).
(§9) The reaction tubes were gentle vortexed and incubated 30 minutes at 37° C. Each reaction was stopped by adding 30 μl of Stop Buffer and 30 μl chloroform/isoamyl alcohol (24/1), briefly vortexed for 5-10 seconds and centrifuged at 20000×g for 2 minutes. Samples were loaded onto 1% agarose gel and subjected to electrophoresis for 1 hour at 80V constant voltage in TAE (40 mM Tris-acetate, 2 mM EDTA).
(§10) Data acquisition and analysis. Treatment of relaxed pBR322 with DNA gyrase converted the relaxed topoisomers (DNAs of different linking number) to the supercoiled form of the plasmid, which migrates faster on an agarose gel. An upper band might also be visible, which consists of open-circular (nicked) DNA which is present in the relaxed substrate but co-migrates with some of the relaxed topoisomers.
(§11) Bands were visualized by ethidium bromide staining (dil 1:20000) for 30 minutes followed by destaining in distilled water for 10 minutes.
(§12) In order to evaluate the compounds activity on the enzyme, the bands of supercoiled DNAs in the gel were photographed by a digital imaging system ImageQuant LAS 4000 (GE Healthcare) according to manufacturer's instructions.
(§13) The fluorescent intensity of each band was analysed by ImageQuant TL software and it was expressed as volume (volume of the uncalibrated quantity of material in the image feature after subtraction of the background intensity by using rolling ball method).
(§14) Each band intensity was compared, as percentage, to vehicle sample band intensity, which served as positive control, on the same gel.
(§15) Inhibitory activity was expressed as percent of inhibition versus the positive control.

[2] = target: T2, DNA gyrase (Escherichia coli, UniProt P0AES4+P0AES6); experiment: DNA gyrase supercoiling assay (E. coli)
T2 construct: purchased Inspiralis, UK
T2 sequence (P0AES4 whole entry, one chain of several): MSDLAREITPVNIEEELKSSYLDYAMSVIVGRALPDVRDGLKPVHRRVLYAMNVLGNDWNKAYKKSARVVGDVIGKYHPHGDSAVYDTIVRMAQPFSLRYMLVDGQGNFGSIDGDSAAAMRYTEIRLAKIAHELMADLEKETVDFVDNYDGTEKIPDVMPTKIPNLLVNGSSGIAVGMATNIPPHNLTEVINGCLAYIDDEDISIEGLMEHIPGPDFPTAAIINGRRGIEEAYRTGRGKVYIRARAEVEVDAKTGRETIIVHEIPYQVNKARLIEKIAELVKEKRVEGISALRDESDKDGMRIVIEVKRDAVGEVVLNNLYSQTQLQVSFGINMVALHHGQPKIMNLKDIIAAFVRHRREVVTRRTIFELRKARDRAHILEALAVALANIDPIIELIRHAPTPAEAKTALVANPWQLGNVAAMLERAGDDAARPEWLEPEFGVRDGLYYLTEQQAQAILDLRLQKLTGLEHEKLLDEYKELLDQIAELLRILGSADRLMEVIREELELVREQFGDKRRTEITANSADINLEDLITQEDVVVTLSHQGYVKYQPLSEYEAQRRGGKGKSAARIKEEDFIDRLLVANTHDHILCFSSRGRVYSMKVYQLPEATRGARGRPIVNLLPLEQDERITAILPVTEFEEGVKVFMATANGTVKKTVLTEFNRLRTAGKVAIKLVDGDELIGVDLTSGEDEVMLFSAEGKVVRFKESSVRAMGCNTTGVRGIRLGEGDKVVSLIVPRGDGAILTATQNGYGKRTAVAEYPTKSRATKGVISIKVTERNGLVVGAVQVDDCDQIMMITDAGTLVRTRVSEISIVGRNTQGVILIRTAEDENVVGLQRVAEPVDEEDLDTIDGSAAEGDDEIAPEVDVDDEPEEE
Method: as §1, §2, §3, §4, §5, §6, §7, §8, §9, §10, §11, §12, §13, §14, §15

[3] = target: T3, Topoisomerase IV (Staphylococcus aureus, UniProt P0C1S7+P0C1U9); experiment: Topoisomerase IV decatenation assay (S. aureus)
T3 construct: purchased Inspiralis, UK
Method: as §1, §2, §3, §4
(§16) Topoisomerase IV Decatenation Assay
(§17) S. aureus and E. coli Topoisomerase IV decatenation kits (Inspiralis, UK) were used. A master mix with a total volume sufficient for the number of reactions to perform was prepared with the following reagents: 5× assay buffer (50 mM HEPES-KOH (pH 7.6), 100 mM potassium glutamate, 10 mM magnesium acetate, 10 mM DTT, 1 mM ATP, 50 μg/ml albumin), kDNA substrate (200 ng/reaction), RNase-DNase free water. Aliquots of this mix were dispensed in each tube, then 10× compound stock solutions or vehicle control (DMSO), were added in each reaction tube.
(§18) Reaction was started with Topoisomerase IV enzyme (0.5 U/reaction) addition.
as §8
(§19) The reaction tubes were gentle vortexed and incubated 30 minutes at 37° C. Each reaction was stopped by adding 30 μl of Stop Buffer and 30 μl of chloroform/isoamyl alcohol (24/1), briefly vortexed for 5-10 seconds and centrifuged at 20000×g for 2 minutes. Samples taken from the upper phase were loaded into 1% agarose gel and subjected to electrophoresis for 1 hour at 80V constant voltage in TAE (40 mM Tris-acetate, 2 mM EDTA).
(§20) Data acquisition and analysis. Due to the high molecular mass, kDNA could not enter an agarose gel under normal electrophoresis conditions, but remained in the wells. In the presence of Topo IV topoisomerase mini-circles (2.5 Kb) were released from kDNA by decatenation and were quickly and easily resolved in the gel at relatively high voltages.
as §11
(§21) For single concentration screening assay, in order to evaluate the compounds activity on the enzymes, the bands of decatenated DNAs in the gel were photographed by a digital imaging system ImageQuant LAS 4000 (GE Healthcare) according to manufacturer's instructions.
(§22) The fluorescent intensity of each band was analyzed by ImageQuant TL software and it was expressed as volume (volume of the uncalibrated quantity of material in the image feature after subtraction of the background intensity by using rolling ball method).
as §14, §15

[4] = target: T4, Topoisomerase IV (Escherichia coli, UniProt P0AFI2+P20083); experiment: Topoisomerase IV decatenation assay (E. coli)
T4 construct: purchased Inspiralis, UK
T4 sequence (P20083 whole entry): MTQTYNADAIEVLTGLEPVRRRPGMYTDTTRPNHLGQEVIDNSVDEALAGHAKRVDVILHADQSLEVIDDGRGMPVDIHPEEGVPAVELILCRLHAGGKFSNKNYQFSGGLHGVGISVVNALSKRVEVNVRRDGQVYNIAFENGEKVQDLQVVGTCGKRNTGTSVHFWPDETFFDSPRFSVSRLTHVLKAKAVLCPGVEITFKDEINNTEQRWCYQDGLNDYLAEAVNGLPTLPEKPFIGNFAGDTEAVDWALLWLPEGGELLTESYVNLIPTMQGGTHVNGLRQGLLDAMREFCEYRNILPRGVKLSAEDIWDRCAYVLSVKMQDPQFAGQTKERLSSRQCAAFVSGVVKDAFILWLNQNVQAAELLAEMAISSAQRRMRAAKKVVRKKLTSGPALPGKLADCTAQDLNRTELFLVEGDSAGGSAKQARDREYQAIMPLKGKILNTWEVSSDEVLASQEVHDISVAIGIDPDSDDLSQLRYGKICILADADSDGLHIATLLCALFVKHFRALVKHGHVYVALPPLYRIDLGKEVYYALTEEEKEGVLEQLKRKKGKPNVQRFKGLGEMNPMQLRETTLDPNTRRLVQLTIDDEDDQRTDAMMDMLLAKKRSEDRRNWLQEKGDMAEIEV
T4 sequence (P0AFI2 whole entry): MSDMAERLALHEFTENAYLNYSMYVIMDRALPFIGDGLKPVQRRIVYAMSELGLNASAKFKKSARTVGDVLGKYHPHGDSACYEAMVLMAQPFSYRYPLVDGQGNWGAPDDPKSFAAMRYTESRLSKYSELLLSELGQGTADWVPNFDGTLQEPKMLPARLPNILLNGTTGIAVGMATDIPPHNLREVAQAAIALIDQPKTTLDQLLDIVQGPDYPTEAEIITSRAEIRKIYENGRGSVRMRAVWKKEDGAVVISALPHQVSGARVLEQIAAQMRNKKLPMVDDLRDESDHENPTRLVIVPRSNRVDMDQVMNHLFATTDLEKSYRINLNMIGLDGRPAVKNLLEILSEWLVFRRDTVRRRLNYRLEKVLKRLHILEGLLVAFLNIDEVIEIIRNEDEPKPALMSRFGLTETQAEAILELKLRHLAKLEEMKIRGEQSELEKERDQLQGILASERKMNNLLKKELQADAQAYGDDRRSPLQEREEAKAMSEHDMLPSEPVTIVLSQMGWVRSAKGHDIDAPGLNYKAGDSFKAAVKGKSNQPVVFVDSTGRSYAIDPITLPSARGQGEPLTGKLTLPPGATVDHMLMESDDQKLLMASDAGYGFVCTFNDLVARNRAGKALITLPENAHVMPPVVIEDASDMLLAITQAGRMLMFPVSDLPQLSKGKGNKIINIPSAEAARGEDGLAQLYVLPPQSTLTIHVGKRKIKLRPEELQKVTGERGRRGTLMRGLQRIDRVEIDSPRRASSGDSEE
Method: as §1, §2, §3, §4, §16, §17, §18, §8, §19, §20, §11, §21, §22, §14, §15

SMILES	% inhibition DNA gyrase [1]	% inhibition DNA gyrase [2]	% inhibition Topo IV [3]	% inhibition Topo IV [4]
O=c1cc(NC[C@H](O)[C@@H](O)C2CCN(c3nccc4ccc(F)cc34)CC2)c2ccccc2o1 (racemic) [Compound 128, (2S,3S) and (2R,3R) 4-({3-[1-(7-fluoroisoquinolin-1-yl)piperidin-4-yl]-2,3-dihydroxypropyl}amino)-2H-chromen-2-one hydrochloride]	66%	n/a (n/a = not active)	n/a (n/a = not active)	n/a (n/a = not active)
O=c1cc(NC[C@@H](O)[C@@H](O)C2CCN(c3nccc4ccc(F)cc34)CC2)c2ccccc2o1 (racemic) [Compound 129, (2R,3S) and (2S,3R) 4-({3-[1-(7-fluoroisoquinolin-1-yl)piperidin-4-yl]-2,3-dihydroxypropyl}amino)-2H-chromen-2-one hydrochloride]	n/a (n/a = not active)	69%	n/a (n/a = not active)	n/a (n/a = not active)
O=c1cc(NCCCN2CCN(c3nccc4ccccc34)CC2)c2ccccc2[nH]1 [Compound 58, 4,4-({3-[4-(isoquinolin-1-yl)piperazin-1-yl]propyl}amino)quinolin-2(1H)-one hydrochloride]	n/a (n/a = not active)	100%		n/a (n/a = not active)
O=C(CN1CCC(Nc2cc(=O)oc3ccccc23)CC1)Nc1nccc2ccccc12 [Compound 117, N-(isoquinolin-1-yl)-2-{4-[(2-oxo-2H-chromen-4-yl)amino]piperidin-1-yl}acetamide]	n/a (n/a = not active)	75%		n/a (n/a = not active)
c1ccc2sc(CNCCCN3CCN(c4nccc5ccccc45)CC3)cc2c1 [Compound 119, N-(1-benzothiophen-2-ylmethyl)-3-[4-(isoquinolin-1-yl)piperazin-1-yl]propan-1-amine]	60%	n/a (n/a = not active)		n/a (n/a = not active)
c1ccc2c(N3CCN(CCCNCc4ccc5c(c4)OCO5)CC3)nccc2c1 [Compound 120, N-(1,3-benzodioxol-5-ylmethyl)-3-[4-(isoquinolin-1-yl)piperazin-1-yl]propan-1-amine]	76%	n/a (n/a = not active)		n/a (n/a = not active)
c1ccc2c(N3CCN(CCNCc4ccc5c(c4)OCO5)CC3)nccc2c1 [Compound 130, N-(1,3-benzodioxol-5-ylmethyl)-2-[4-(isoquinolin-1-yl)piperazin-1-yl]ethanamine]	74%	n/a (n/a = not active)		n/a (n/a = not active)
O=C(O)CC(NC[C@@H](O)CN1CCN(c2nccc3ccc(F)cc23)CC1)C1CCCCC1 (stereo partly drawn) [Compound 136, 3-cyclohexyl-3-({(2R)-3-[4-(7-fluoroisoquinolin-1-yl)piperazin-1-yl]-2-hydroxypropyl}amino)propanoic acid]	75%	57%		n/a (n/a = not active)
O=C(O)CC(NC[C@H](O)CN1CCN(c2nccc3ccc(F)cc23)CC1)C1CCCCC1 (stereo partly drawn) [Compound 137, 3-cyclohexyl-3-({(2S)-3-[4-(7-fluoroisoquinolin-1-yl)piperazin-1-yl]-2-hydroxypropyl}amino)propanoic acid]	75%	57%		n/a (n/a = not active)
O=C(O)[C@@H](NC[C@H](O)CN1CCN(c2nccc3ccc(F)cc23)CC1)C1CCCCC1 [Compound 138, (2S)-cyclohexyl({(2S)-3-[4-(7-fluoroisoquinolin-1-yl)piperazin-1-yl]-2-hydroxypropyl}amino)acetic acid]	89%	n/a (n/a = not active)		n/a (n/a = not active)
O=C(O)[C@H](NC[C@@H](O)CN1CCN(c2nccc3ccc(F)cc23)CC1)C1CCCCC1 [Compound 139, (2R)-cyclohexyl({(2R)-3-[4-(7-fluoroisoquinolin-1-yl)piperazin-1-yl]-2-hydroxypropyl}amino)acetic acid]	54%	n/a (n/a = not active)		n/a (n/a = not active)
O=C(O)[C@@H](NC[C@@H](O)CN1CCN(c2nccc3ccc(F)cc23)CC1)C1CCCCC1 [Compound 140, (2S)-cyclohexyl({(2R)-3-[4-(7-fluoroisoquinolin-1-yl)piperazin-1-yl]-2-hydroxypropyl}amino)acetic acid]	92%	68%		n/a (n/a = not active)
OCCC(NCCNC1CCN(c2nccc3ccc(F)cc23)CC1)C1CCCCC1 (centres unmarked) [Compound 167, 3-cyclohexyl-3-[(2-{[1-(7-fluoroisoquinolin-1-yl)piperidin-4-yl]amino}ethyl)amino]propan-1-ol]	70%	n/a (n/a = not active)		n/a (n/a = not active)
COC(=O)CC(NCCNC1CCN(c2nccc3ccc(F)cc23)CC1)C1CCCCC1 (centres unmarked) [Compound 189, methyl 3-cyclohexyl-3-[(2-{[1-(7-fluoroisoquinolin-1-yl)piperidin-4-yl]amino}ethyl)amino]propanoate]	84%	n/a (n/a = not active)		n/a (n/a = not active)
O=C(CC(NCCNC1CCN(c2nccc3ccc(F)cc23)CC1)C1CCCCC1)NO (centres unmarked) [Compound 191, 3-cyclohexyl-3-[(2-{[1-(7-fluoroisoquinolin-1-yl)piperidin-4-yl]amino}ethyl)amino]-N-hydroxypropanamide]	81%	n/a (n/a = not active)		n/a (n/a = not active)
